Read-outs that look alike come from different tables or passages of the source.
How the values were obtained:
Format in all cases: in vivo
[1] = tested on: Diabrotica balteata (Corn root worm); experiment: Diabrotica balteata (Corn root worm) mortality test on sprayed maize sprouts; settings: 96 h
Protocol: Diabrotica balteata (Corn root worm):
Maize sprouts placed onto an agar layer in 24-well microtiter plates were treated with aqueous test solutions prepared from 10′000 ppm DMSO stock solutions by spraying. After drying, the plates were infested with L2 larvae (6 to 10 per well). The samples were assessed for mortality 4 days after infestation.

[2] = tested on: Euschistus heros (Neotropical Brown Stink Bug); experiment: Euschistus heros (Neotropical Brown Stink Bug): feeding/contact activity; settings: 120 h
Protocol: Euschistus heros (Neotropical Brown Stink Bug): Feeding/Contact Activity
Soybean leaves on agar in 24-well microtiter plates were sprayed with aqueous test solutions prepared from 10,000 ppm DMSO stock solutions. After drying the leaves were infested with N2 nymphs. The samples were assessed for mortality 5 days after infestation.

[3] = tested on: Myzus persicae (Green Peach Aphid); experiment: Myzus persicae (Green Peach Aphid): feeding/contact activity; settings: foliar, 144 h
Protocol: Myzus persicae (Green Peach Aphid): Feeding/Contact Activity
Sunflower leaf discs were placed onto agar in a 24-well microtiter plate and sprayed with aqueous test solutions prepared from 10,000 ppm DMSO stock solutions. After drying, the leaf discs were infested with an aphid population of mixed ages. The samples were assessed for mortality 6 days after infestation.

[4] = tested on: Plutella xylostella (Diamond Back Moth); experiment: Plutella xylostella (Diamond Back Moth): feeding/contact activity; settings: 120 h
Protocol: Plutella xylostella (Diamond Back Moth): Feeding/Contact Activity
24-well microtiter plates with artificial diet were treated with aqueous test solutions prepared from 10′000 ppm DMSO stock solutions by pipetting. After drying, the plates were infested with L2 larvae (10 to 15 per well). The samples were assessed for mortality 5 days after infestation.

[5] = tested on: Spodoptera littoralis (Egyptian Cotton Leaf Worm); experiment: Spodoptera littoralis (Egyptian Cotton Leaf Worm): feeding/contact activity; settings: foliar, 72 h
Protocol: Spodoptera littoralis (Egyptian Cotton Leaf Worm): Feeding/Contact Activity
Cotton leaf discs were placed onto agar in 24-well microtiter plates and sprayed with aqueous test solutions prepared from 10′000 ppm DMSO stock solutions. After drying the leaf discs were infested with five L1 larvae. The samples were assessed for mortality 3 days after infestation.

[6] = tested on: Tetranychus urticae (Two-Spotted Spider Mite); experiment: Tetranychus urticae (Two-Spotted Spider Mite): feeding/contact activity; settings: foliar, 192 h, read-out: mortality on mixed population (mobile stages)
Protocol: Tetranychus urticae (Two-Spotted Spider Mite): Feeding/Contact Activity
Bean leaf discs on agar in 24-well microtiter plates were sprayed with aqueous test solutions prepared from 10′000 ppm DMSO stock solutions. After drying the leaf discs were infested with a mite population of mixed ages. The samples were assessed for mortality on mixed population (mobile stages) 8 days after infestation.

[7] = tested on: Thrips tabaci (Onion Thrips); experiment: Thrips tabaci (Onion Thrips): feeding/contact activity; settings: foliar, 144 h
Protocol: Thrips tabaci (Onion Thrips): Feeding/Contact Activity
Sunflower leaf discs were placed on agar in 24-well microtiter plates and sprayed with aqueous test solutions prepared from 10′000 ppm DMSO stock solutions. After drying the leaf discs were infested with a thrips population of mixed ages. The samples were assessed for mortality 6 days after infestation.

[8] = application rate 200 ppm, maize sprouts sprayed, L2 larvae, assessed 4 days after infestation, read-out: mortality
[9] = application rate 200 ppm, soybean leaves sprayed, N2 nymphs, assessed 5 days after infestation, read-out: mortality
[10] = application rate 200 ppm, sunflower leaf discs sprayed, aphid population of mixed ages, assessed 6 days after infestation, read-out: mortality
[11] = application rate 200 ppm, artificial diet treated by pipetting, L2 larvae, assessed 5 days after infestation, read-out: mortality
[12] = application rate 200 ppm, cotton leaf discs sprayed, L1 larvae, assessed 3 days after infestation, read-out: mortality
[13] = application rate 200 ppm, bean leaf discs sprayed, mite population of mixed ages, assessed 8 days after infestation
[14] = application rate 200 ppm, sunflower leaf discs sprayed, thrips population of mixed ages, assessed 6 days after infestation, read-out: mortality

Measured: mortality at 200 ppm

COCN(C(=O)c1cc(-c2cnn(-c3c(OC(F)F)c(C(F)(F)C(F)(F)F)nn3C)c2)ccc1Cl)C1(C#N)CC1 [Compound 1, 2-chloro-N-(1-cyanocyclopropyl)-5-[1-[4-(difluoromethoxy)-2-methyl-5-(1,1,2,2,2-pentafluoroethyl)pyrazol-3-yl]pyrazol-4-yl]-N-(methoxymethyl)benzamide]
≥ 80%: [1]; [8] | [2]; [9] | [3]; [10] | [4]; [11] | [5]; [12] | [6]; [13] | [7]; [14]

C#CCN(C(=O)c1cc(-c2cnn(-c3c(OC(F)F)c(C(F)(F)C(F)(F)F)nn3C)c2)ccc1Cl)C1CC1 [Compound 2, 2-chloro-N-cyclopropyl-5-[1-[4-(difluoromethoxy)-2-methyl-5-(1,1,2,2,2-pentafluoroethyl)pyrazol-3-yl]pyrazol-4-yl]-N-prop-2-ynyl-benzamide]
≥ 80%: [1]; [8] | [2]; [9] | [3]; [10] | [4]; [11] | [5]; [12] | [6]; [13] | [7]; [14]

Cn1nc(C(F)(F)C(F)(F)F)c(OC(F)F)c1-n1cc(-c2ccc(Cl)c(C(=O)N(CC#N)C3(C#N)CC3)c2)cn1 [Compound 3, 2-chloro-N-(1-cyanocyclopropyl)-N-(cyanomethyl)-5-[1-[4-(difluoromethoxy)-2-methyl-5-(1,1,2,2,2-pentafluoroethyl)pyrazol-3-yl]pyrazol-4-yl]benzamide]
≥ 80%: [1]; [8] | [2]; [9] | [3]; [10] | [4]; [11] | [5]; [12] | [6]; [13] | [7]; [14]

CC(C)OC(=O)N(C(=O)c1cc(-c2cnn(-c3c(OC(F)F)c(C(F)(F)C(F)(F)F)nn3C)c2)ccc1Cl)C1(C#N)CC1 [Compound 5, isopropyl N-[2-chloro-5-[1-[4-(difluoromethoxy)-2-methyl-5-(1,1,2,2,2-pentafluoroethyl)pyrazol-3-yl]pyrazol-4-yl]benzoyl]-N-(1-cyanocyclopropyl)carbamate]
≥ 80%: [1] | [2]; in Glycine max | [3] | [4] | [5] | [6] | [7]

CCOC(=O)N(C(=O)c1cc(-c2cnn(-c3c(OC(F)F)c(C(F)(F)C(F)(F)F)nn3C)c2)ccc1Cl)C1(C#N)CC1 [Compound 6, ethyl N-[2-chloro-5-[1-[4-(difluoromethoxy)-2-methyl-5-(1,1,2,2,2-pentafluoroethyl)pyrazol-3-yl]pyrazol-4-yl]benzoyl]-N-(1-cyanocyclopropyl)carbamate]
≥ 80%: [1] | [2]; in Glycine max | [3] | [4] | [5] | [6] | [7]

COC(=O)N(C(=O)c1cc(-c2cnn(-c3c(OC(F)F)c(C(F)(F)C(F)(F)F)nn3C)c2)ccc1Cl)C1(C#N)CC1 [Compound 7, methyl N-[2-chloro-5-[1-[4-(difluoromethoxy)-2-methyl-5-(1,1,2,2,2-pentafluoroethyl)pyrazol-3-yl]pyrazol-4-yl]benzoyl]-N-(1-cyanocyclopropyl)carbamate]
≥ 80%: [1] | [2]; in Glycine max | [3] | [4] | [5] | [6]

CC(=O)N(C(=O)c1cc(-c2cnn(-c3c(OC(F)F)c(C(F)(F)C(F)(F)F)nn3C)c2)ccc1Cl)C1(C#N)CC1 [Compound 8, N-acetyl-2-chloro-N-(1-cyanocyclopropyl)-5-[1-[4-(difluoromethoxy)-2-methyl-5-(1,1,2,2,2-pentafluoroethyl)pyrazol-3-yl]pyrazol-4-yl]benzamide]
≥ 80%: [1]; [8] | [2]; [9] | [3]; [10] | [4]; [11] | [5]; [12] | [6]; [13]

Cn1nc(C(F)(F)C(F)(F)F)c(OC(F)F)c1-n1cc(-c2ccc(Cl)c(C(=O)N(CC3CC3)C3(C#N)CC3)c2)cn1 [Compound 9, 2-chloro-N-(1-cyanocyclopropyl)-N-(cyclopropylmethyl)-5-[1-[4-(difluoromethoxy)-2-methyl-5-(1,1,2,2,2-pentafluoroethyl)pyrazol-3-yl]pyrazol-4-yl]benzamide]
≥ 80%: [1]; [8] | [2]; [9] | [3]; [10] | [4]; [11] | [5]; [12] | [6]; [13] | [7]; [14]

Cn1nc(C(F)(F)C(F)(F)F)c(OC(F)F)c1-n1cc(-c2ccc(Cl)c(C(=O)N(CC(F)(F)F)C3(C#N)CC3)c2)cn1 [Compound 10, 2-chloro-N-(1-cyanocyclopropyl)-5-[1-[4-(difluoromethoxy)-2-methyl-5-(1,1,2,2,2-pentafluoroethyl)pyrazol-3-yl]pyrazol-4-yl]-N-(2,2,2-trifluoroethyl)benzamide]
≥ 80%: [1]; [8] | [3]; [10] | [4]; [11] | [5]; [12] | [7]; [14]

CC(C)CN(C(=O)c1cc(-c2cnn(-c3c(OC(F)F)c(C(F)(F)C(F)(F)F)nn3C)c2)ccc1Cl)C1(C#N)CC1 [Compound 11, 2-chloro-N-(1-cyanocyclopropyl)-5-[1-[4-(difluoromethoxy)-2-methyl-5-(1,1,2,2,2-pentafluoroethyl)pyrazol-3-yl]pyrazol-4-yl]-N-isobutyl-benzamide]
≥ 80%: [1]; [8] | [2]; [9] | [3]; [10] | [4]; [11] | [5]; [12] | [7]; [14]

CC(C)C(=O)N(C(=O)c1cc(-c2cnn(-c3c(OC(F)F)c(C(F)(F)C(F)(F)F)nn3C)c2)ccc1Cl)C1(C#N)CC1 [Compound 12, 2-chloro-N-(1-cyanocyclopropyl)-5-[1-[4-(difluoromethoxy)-2-methyl-5-(1,1,2,2,2-pentafluoroethyl)pyrazol-3-yl]pyrazol-4-yl]-N-(2-methylpropanoyl)benzamide]
≥ 80%: [1]; [8] | [2]; [9] | [3]; [10] | [4]; [11] | [5]; [12] | [6]; [13]
